Values joined by “and” are separate entries in the source; they are usually repeats but may differ in a detail not shown here. Identical values can stand only once. Blank lines part the entries; values can stand above or below the compound they belong to.
Columns and labels:
Caco‐2 monolayers = experiment: Bi-directional transepithelial transport of 7,8-DHF across Caco-2 monolayers with flavonoids screened as P-gp inhibitors (Papp, ER); format: in vitro ADME, human; details: for Modulatory effect on 7,8‐DHF transport: flavonoid equimolar with 7,8‐DHF 10 μmol/L; for Modulatory effect on 7,8‐DHF transport: key: + indicates that the inhibitor has a significant effect on 7,8‐DHF transport; − indicates that the inhibitor has no significant effect on 7,8‐DHF transport
Procedure: (§1) For this experiment, the 7,8‐DHF sample was first dissolved in a small amount of dimethyl sulfoxide (DMSO) and then diluted with HBSS to a working concentration of 10 μmol/L. The final DMSO concentration in the working solution was controlled to be less than 0.5%. […] Flavonoid samples were added to the AP and BL sides at equimolar concentrations with 7,8‐DHF (the sample concentration in HBSS solution was 10 μmol/L). Prior to transport, dietary flavonoids were pretreated on the AP side for 30 min. Then, these flavonoid reagents were removed, and a 0.5 mL HBSS solution containing various dietary flavonoids with 7,8‐DHF (concentration of 10 μmol/L) was added to the AP side, while 1.5 mL of blank HBSS was added to the BL side. Conversely, 1.5 mL of HBSS solution containing various dietary flavonoids with 7,8‐DHF (10 μmol/L) was added to the BL side, and 0.5 mL of blank HBSS was added to the AP side.
(§2) The magnitude of the apparent permeability coefficients (P app, cm/s) and efflux ratio (ER) reflects the ability of the test substance to pass through the monolayer cells and the speed of absorption.
(§3) (4) ER=PappAB/PappBA where P app AB is the apparent permeability coefficient for AP → BL transport, and P app BA is the apparent permeability coefficient for BL → AP transport.
(§4) Effect of different concentrations of specific flavonoids on 7,8‐DHF transepithelial transport was investigated. The operating procedure was followed by above section, with the exception that specific dietary flavonoid samples were added to the AP and BL sides at varying molar ratios with 7,8‐DHF (2:1, 1:1, 1:2, and 1:4). The specific dietary flavonoids were dissolved in HBSS while controlling the DMSO concentration to be less than 0.5%.

[1] = In vitro digestion stability of 7,8-DHF (simulated saliva, gastric fluid, intestinal fluid); format: in vitro ADME; details: 7,8‐DHF combined with the named flavonoid
Procedure: The in vitro digestion model proposed by Versantvoort et al.'s report was modified as follows (Versantvoort et al., [2005]): […] The pH of the system was then adjusted to 7.5 and simulated intestinal fluid containing pancreatin and bile salts was added for 2 h of stirring. During the process, a certain amount of the digested liquid sample from the simulated saliva, gastric fluid, and intestinal fluid were taken, and ethanol was added to precipitate and inactivate the enzymes. […] A 1 mL aliquot was placed in a high-speed centrifuge tube (3K15, Sigma) and centrifuged at 4°C, 11000 × g for 15 min.

Caco‐2 cells [2] = experiment: Uptake amount of 7,8-DHF in Caco-2 cells at the end of transport; format: in vitro ADME, human
Procedure: The cell surface was rapidly washed three times with ice-cold HBSS solution. The cells were harvested using a cell scraper and resuspended in 1.0 mL of 0.1% extraction solution (phosphate: methanol = 1:1, v/v) before being homogenized in an ultrasonicator.

[3] = Stability of 7,8-DHF in HBSS; format: physicochemical; details: HBSS pH 7.4, 37°C, 10 μmol/L
Procedure: (§5) Simultaneously, 0.5 mL of the aforementioned solution was added to the AP side of the Transwell culture plate containing Caco‐2 cells, while 1.5 mL of blank HBSS added to the BL side. […] The Caco‐2 cell stability test was performed under both inhibitory and non‐inhibitory conditions, and the 7,8‐DHF content in the samples was determined.
(§6) A volume of 200 μL of receiving solution was transferred into a 1 mL centrifuge tube, followed by adding 10 μL of internal standard solution (10 μg/mL apigenin) and 200 μL of methanol. […] Thereafter, 5 μL of the supernatant was injected into the UPLC system. The UPLC system used in this study was a Waters ACQUITY UPLC H‐CLASS series instrument (Waters) equipped with a quaternary solvent manager, a sample manager‐flow through needle, a chromatographic column heater and a PDA eλ detector. […] The mobile phase comprised of methanol (solvent A) and 0.05% trifluoroacetic acid of ultrapure water (solvent B). The gradient elution program was as follows: 20% solvent A (0~1 min), 20%~80% solvent A (1~5 min), 80%~100% solvent A (5~7 min), 100 ~ 20% solvent A (7~8 min), and 20% solvent A (8~9 min). The flow rate maintained at 0.2 mL/min, the temperature was set to 37°C, and the PDA detector wavelength was set at 330 nm.

Caco‐2 cells [4] = experiment: Cytotoxicity, CCK-8 assay; format: cell-based, human; details: 24 h
Procedure: To determine the cytotoxicity of 7,8‐DHF for transport experiments, a CCK‐8 assay was carried out (Han et al., [2023]). A total of 200 μL culture medium containing Caco‐2 cells at a density of 3 × 10^4 cells/mL was seeded in a 96‐well plate and incubated for 24 h to allow for adherence. After the incubation period, the culture medium was removed and replaced with 200 μL fresh medium containing 7,8‐DHF at concentrations of 1, 10, 50, 100, and 300 μmol/L. Additionally, 200 μL medium without 7,8‐DHF was added as the control group, while medium without cells was used as the blank group. Following 24 h of drug stimulation, 10 μL CCK‐8 reagent was added to each well followed by another 2 h incubation. The absorbance was measured at 450 nm wavelength using an enzyme‐linked immunosorbent assay reader (Eonmei, BioTek). Each sample was repeated five times, and the cell survival rate was calculated using the following formula: (2) Cell survival rate%=ODsample group−ODblank group/ODcontrol group−ODblank group×100 where OD represents the absorbance of each sample at 450 nm wavelength.

[5] = set-up: method as in Liu et al., 2013; details: C57BL/6 mice, ref Liu et al., 2013; cited from earlier work
[6] = Stability (recovery) of 7,8-DHF in Caco-2 cells with or without inhibitors; details: human, Caco-2, pH 7.4
Procedure: as §5, §6

Caco‐2 cells [7] = experiment: as above; details: 60 and 240 min incubation
Procedure: as §5, §6

in vitro = in vitro ADME, human; details: human, Caco-2
Procedure: as §1, §2, §3, §4

[8] = set-up: method as in Xiao and Högger (2015); details: DMEM solutions during Caco‐2 cell incubation; ref Xiao and Högger (2015); cited from earlier work
[9] = human, Caco-2, 150 min, 10 μmol/L

SMILES: O=c1c(O)c(-c2cc(O)c(O)c(O)c2)oc2cc(O)cc(O)c12 [Myricetin, myricetin]
Modulatory effect on 7,8‐DHF transport (Caco‐2 monolayers; verapamil 100 μmol/L): +

SMILES: O=c1cc(-c2ccccc2)oc2cc(O)c(O)c(O)c12 [Baicalein, baicalein]
Modulatory effect on 7,8‐DHF transport (Caco‐2 monolayers; verapamil 100 μmol/L): +
ER of 7,8‐DHF in presence of the named inhibitor (Caco‐2 monolayers; [9]): 1.59

SMILES: O=c1c(-c2ccc(O)cc2)coc2cc(O)cc(O)c12 [Genistein, genistein]
Modulatory effect on 7,8‐DHF transport (Caco‐2 monolayers; verapamil 100 μmol/L): +

Effect of combined flavonoid on retention of 7,8‐DHF in simulated in vitro digestion [1]: no significant effects were observed
SMILES: O=c1c(O)c(-c2ccc(O)cc2)oc2cc(O)cc(O)c12 [Kaempferol, kaempferol]
Modulatory effect on 7,8‐DHF transport (Caco‐2 monolayers; verapamil 100 μmol/L): +

SMILES: O=c1cc(-c2ccc(O)c(O)c2)oc2cc(O)c([C@@H]3O[C@H](CO)[C@@H](O)[C@H](O)[C@H]3O)c(O)c12 [Isoorientin, isoorientin]
Modulatory effect on 7,8‐DHF transport (Caco‐2 monolayers; verapamil 100 μmol/L): +

SMILES: O=c1cc(-c2ccc(O)cc2)oc2c([C@@H]3O[C@H](CO)[C@@H](O)[C@H](O)[C@H]3O)c(O)cc(O)c12 [Vitexin, vitexin]
Uptake amount of 7,8‐DHF in Caco‐2 cells after treatment with the named inhibitor (Caco‐2 cells [2]; flavonoid: 7,8‐DHF 1:1 (equimolar), verapamil 100 μmol/L, end of 150 min transport): significant decrease
Modulatory effect on 7,8‐DHF transport (Caco‐2 monolayers; verapamil 100 μmol/L): −
P app AB of 7,8‐DHF in presence of the named inhibitor (Caco‐2 monolayers; [9]): 1.14 ± 0.16 ×10^−6 cm/s
P app BA of 7,8‐DHF in presence of the named inhibitor (Caco‐2 monolayers; [9]): 1.94 ± 0.03 ×10^−6 cm/s

SMILES: O=c1cc(-c2ccc(O)cc2)oc2cc(O)c([C@@H]3O[C@H](CO)[C@@H](O)[C@H](O)[C@H]3O)c(O)c12 [Isovitexin, isovitexin]
Modulatory effect on 7,8‐DHF transport (Caco‐2 monolayers; verapamil 100 μmol/L): +
ER of 7,8‐DHF in presence of the named inhibitor (Caco‐2 monolayers; [9]): 1.55
P app AB of 7,8‐DHF in presence of the named inhibitor (Caco‐2 monolayers; [9]): 1.27 ± 0.08 ×10^−6 cm/s
P app BA of 7,8‐DHF in presence of the named inhibitor (Caco‐2 monolayers; [9]): 1.97 ± 0.11 ×10^−6 cm/s

SMILES: O=c1cc(-c2ccc(O)c(O)c2)oc2c([C@@H]3O[C@H](CO)[C@@H](O)[C@H](O)[C@H]3O)c(O)cc(O)c12 [Orientin]
Modulatory effect on 7,8‐DHF transport (Caco‐2 monolayers; verapamil 100 μmol/L): −

P app AB of 7,8‐DHF in presence of the named inhibitor (Caco‐2 monolayers; [9]): 1.16 ± 0.02 ×10^−6 cm/s
P app BA of 7,8‐DHF in presence of the named inhibitor (Caco‐2 monolayers; [9]): 1.88 ± 0.11 ×10^−6 cm/s
SMILES: O=C1C[C@@H](c2ccc(O)cc2)Oc2cc(O)cc(O)c21 [Naringenin, naringenin]
Modulatory effect on 7,8‐DHF transport (Caco‐2 monolayers; verapamil 100 μmol/L): −

SMILES: COc1ccc(-c2coc3cc(O)cc(O)c3c2=O)cc1 [Biochanin A, biochanin A]
Modulatory effect on 7,8‐DHF transport (Caco‐2 monolayers; verapamil 100 μmol/L): −

SMILES: O=c1c(O)c(-c2ccc(O)c(O)c2)oc2cc(O)ccc12 [Fisetin, fisetin]
Modulatory effect on 7,8‐DHF transport (Caco‐2 monolayers; verapamil 100 μmol/L): +

Recovery of 7,8-DHF ([3]; 60 min): 98.71±1.07%
Recovery of 7,8-DHF ([3]; 240 min): 97.26±2.17%
Uptake amount of 7,8‐DHF in Caco‐2 cells (Caco‐2 cells [2]; control, 7,8‐DHF without inhibitor, end of 150 min transport): 0.378 ± 0.018 nmol/mg protein
recovery at 60 min, 10 μmol/L [6]: 99.11 ± 0.57%
recovery at 240 min, 10 μmol/L [6]: 97.74 ± 0.42%
Metabolism of 7,8‐DHF in Caco‐2 cells (recovery vs blank HBSS) (Caco‐2 cells [7]): not metabolized
Papp A→B at 150 min, 10 μmol/L (in vitro): 1.19 ± 0.08 ×10⁻⁶ cm/s
Papp B→A at 150 min, 10 μmol/L (in vitro): 1.91 ± 0.13 ×10⁻⁶ cm/s
efflux ratio at 150 min, 10 μmol/L (in vitro): 1.61
SMILES: O=c1cc(-c2ccccc2)oc2c(O)c(O)ccc12 [7,8‐DHF, 7,8‐Dihydroxyflavone]
Cell toxicity toward Caco‐2 cells (CCK‐8) (Caco‐2 cells [4]; 300 μmol/L): certain cell toxicity
Cell toxicity toward Caco‐2 cells (CCK‐8) (Caco‐2 cells [4]; concentration range 1~100 μmol/L): no significant cell toxicity
Oral bioavailability [5]: 4.6%
Half‐degradation time [8]: above 180 min

ER of 7,8‐DHF in presence of the named inhibitor (Caco‐2 monolayers; 7,8‐DHF 10 μmol/L, flavonoid equimolar (1:1, 10 μmol/L), verapamil 100 μmol/L): 1.34
P app AB of 7,8‐DHF in presence of the named inhibitor (Caco‐2 monolayers; 7,8‐DHF 10 μmol/L, flavonoid equimolar (1:1, 10 μmol/L), verapamil 100 μmol/L, AP → BL, 150 min): 1.21 ± 0.03 ×10^−6 cm/s
ER of 7,8‐DHF in presence of the named inhibitor (Caco‐2 monolayers; 7,8‐DHF 10 μmol/L, flavonoid equimolar (1:1, 10 μmol/L), verapamil 100 μmol/L, listed as epigallocatechin gallate): less than 1.5
SMILES: O=C(O[C@@H]1Cc2c(O)cc(O)cc2O[C@@H]1c1cc(O)c(O)c(O)c1)c1cc(O)c(O)c(O)c1 [EGCG, epigallocatechin gallate]
P app BA of 7,8‐DHF in presence of the named inhibitor (Caco‐2 monolayers; 7,8‐DHF 10 μmol/L, flavonoid equimolar (1:1, 10 μmol/L), verapamil 100 μmol/L, BL → AP, 150 min): 1.63 ± 0.05 ×10^−6 cm/s and 1.62 ± 0.05 ×10^−6 cm/s
Modulatory effect on 7,8‐DHF transport (Caco‐2 monolayers; verapamil 100 μmol/L): +

Effect of combined flavonoid on retention of 7,8‐DHF in simulated in vitro digestion [1]: no significant effects were observed
Uptake amount of 7,8‐DHF in Caco‐2 cells with the named flavonoid (Caco‐2 cells [2]; molar concentration ratio flavonoid to 7,8‐DHF 1:2): did not increase the uptake
Uptake amount of 7,8‐DHF in Caco‐2 cells with the named flavonoid (Caco‐2 cells [2]; molar concentration ratio flavonoid to 7,8‐DHF 4:1): did not increase the uptake
SMILES: O=c1c(O)c(-c2ccc(O)c(O)c2)oc2cc(O)cc(O)c12 [Quercetin, quercetin]
Modulatory effect on 7,8‐DHF transport (Caco‐2 monolayers; verapamil 100 μmol/L): +
